# Results published in PMC12091851, “Replacing a Cereblon Ligand by a DDB1 and CUL4 Associated Factor 11 (DCAF11) Recruiter Converts a Selective Histone Deacetylase 6 PROTAC into a Pan‐Degrader” (Chemmedchem, 2025).
# Experiments:
# HDAC2 = HDAC2 (Homo sapiens, UniProt Q92769); assay: HDAC enzyme inhibition assay; assay type: biochemical; set-up: purchased BPS Bioscience 50052
# Method: Bio-Rad) to Immobilon-FL PVDF membranes (Catalog# IPFL00005, Mill ipore Merck, Burlington, MA, USA) at 1.0 A for 30 min and treated with 5% milk-powder solution for 1 h at room temperature […]
# Signaling Technology) antibody solutions in 1:1000 –1:8000 dilutions at 4 °C overnight. […]
# Significance testing was performed with a one -way analysis of variance (ANOVA). Dunnett’s post -hoc test was employed to obtain significance levels of each mean compared to a reference mean value.
# 2.7. HDAC Enzyme Inhibition Assay […]
# [4] For test compounds and controls, serial dilutions of the respective DMSO stock solution in DMSO were prepared, and 1.0 μL /well of this serial dilution were transferred […]
# into OptiPlate-96 black microplates (PerkinElmer, Waltham, […], USA). A volume of 4 µL/well assay […]
# BSA) was added. In the case of HDAC1, 2, and 6, a volume of 35 μL/well of the fluorogenic substrate […]
# The total assay volume of 50 μL (max. 2 % DMSO) was incubated at 37 °C for 90 min. Subsequently, 50 μL /well of trypsin (0.4 mg/mL) in trypsin buffer (50 mM Tris−HCl, pH 8.0, 100 mM NaCl) was added, followed by additional 30 min of incubation at […]
# OPTIMA microplate reader (BMG labtech, Ortenburg, Germany). The half maximal inhibitory concentration (IC50) was determined by plotting dose response curves and nonlinear regression with GraphPad Prism (GraphPad Software).
# 2.8. MTT Cell Viability Assay […]
# [1] = Aqueous stability assay in DPBS buffer (HPLC); assay type: physicochemical; settings: DPBS pH 7.4, 10% DMSO, room temperature, 72 hours
# Method: and A6. Compounds were diluted in DPBS buffer (pH = 7.4; final DMSO concentration: 10%) and the remaining compound content was analyzed by HPLC. The peak area at 0 h was used for normalization.
# Mean ± standard deviation of n = 2 replicates.
# Figure S4. Analysis of time dependent degradation by 1j of HDAC1 (A) and HDAC6 (B) by Simple Western™ immunoassay analysis of MM.1S cell lysates. MM.1S cells were treated with 1j (10 µM) or vehicle (DMSO) for the indicated time period. Quantification of protein levels presented as mean ± standard deviation of n = 3 biological replicates. Si gnificance compared to vehicle: * = p≤0.05 , […]
# 2.5. Aqueous Stability Assay
# For stability testing in aqueous solution, a 10-fold concentrated DMSO solution of the respective compounds was diluted in DPBS to generate a 10 µM concentration (final DMSO content of 10%).
# Samples of the aqueous solutions were taken after 0, 24, 48, and 72 h at room temperature and the amounts of the parental compound and potential fragments were monitored by HPLC gradient A (see 3.1 General Information). The peak area of the 0 h sample was used for normalization. All compounds were tested in duplicates and GraphPad Prim was used for evaluation and data visualization.
# The cell lysis was performed as descripted in 3.2. Simple Western Immunoassay. […]
# Afterwards, proteins were transferred with the Trans -Blot Turbo Transfer System (Catalog# 1704150, Bio-Rad) to Immobilon-FL PVDF membranes (Catalog# IPFL00005, Mill ipore Merck, Burlington, MA, USA) at 1.0 A for 30 min and treated with 5% milk-powder solution for 1 h at room temperature under slight agitation. […] The ChemiDoc XRS+ System (Catalog# 1708265 , Bio-Rad) was used for detection and Image Lab Software 6.1 (Bio-Rad) for quantification. […]
# In vitro inhibitory activities against HDAC1, 2 , and 6 were measured using a previously published protocol.[3] In vitro inhibitory activities against HDAC4 were measured using a previously published protocol with slight modifications. […]
# Sequence of HDAC2 (Q92769 whole entry): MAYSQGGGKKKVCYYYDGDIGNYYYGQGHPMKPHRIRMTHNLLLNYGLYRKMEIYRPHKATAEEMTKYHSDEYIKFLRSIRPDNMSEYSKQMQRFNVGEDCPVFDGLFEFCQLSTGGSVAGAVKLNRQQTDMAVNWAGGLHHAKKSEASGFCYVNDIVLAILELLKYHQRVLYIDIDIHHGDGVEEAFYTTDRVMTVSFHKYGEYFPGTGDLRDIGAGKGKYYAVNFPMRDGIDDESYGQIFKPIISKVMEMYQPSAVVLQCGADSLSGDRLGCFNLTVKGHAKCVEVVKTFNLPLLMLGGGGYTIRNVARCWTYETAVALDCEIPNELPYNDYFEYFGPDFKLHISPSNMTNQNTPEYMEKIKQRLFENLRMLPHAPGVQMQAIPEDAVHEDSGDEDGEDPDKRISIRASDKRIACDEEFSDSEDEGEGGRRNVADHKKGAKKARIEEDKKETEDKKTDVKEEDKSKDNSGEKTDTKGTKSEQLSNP
IC50 (HDAC2) [nM],decomposition / reduction in content in DPBS buffer [1],Structure (SMILES)
2150 ± 110,more than 90%,O=C(CCCCCCNC(=O)c1ccc(NC(=O)CCCCCCCCCCCN(C(=O)CCl)C(C(=O)NCc2ccccc2)c2ccc(Cl)c(Cl)c2)cc1)NO (stereo not shown) [Compound 1j]
298 ± 11,31%,O=C(CCCCCCNC(=O)c1ccc(N(C(=O)CCl)C(C(=O)NCc2ccccc2)c2ccc(Cl)c(Cl)c2)cc1)NO (stereo not shown) [Compound 2]
